Results taken from patent US20260198495A1, “BINARY INSECTICIDE COMPOSITION AND USE THEREOF” (SHENYANG SINOCHEM AGROCHEMICALS R & D CO., LTD., priority 2022, published 2026).
≈ marks a conversion by molar mass, not a printed value.

Key:
Assay type in all cases: in vivo
[1] = system: 2nd-instar larvae of Spodoptera exigua Hübner; assay: whole plant or invertebrate; details: Spodoptera exigua, foliar; A = compound I-72, B = tetrachlorantraniliprole; cabbage leaf dipping; 72 hours; read-out: LC50
Method: Test target: 2nd-instar larvae of Spodoptera exigua Hübner.
(§1) Preparation of the pesticide solution: according to different test requirements, the test samples were accurately weighed respectively with an electronic analytical balance. The technical pesticides were dissolved in acetone, and then diluted with 0.1% Tween 80 water into a series of pesticide solutions with a certain concentration gradient according to the experimental design dosage.
(§2) Experimental method: first, cabbage leaves were selected and dipped in the prepared pesticide solution for 10 s in the order from low dosage to high dosage according to the experimental design. After natural air-drying in the shade, they were placed in a 9-cm-diameter Petri dish with filter paper, and uniform and healthy test insects were introduced, with 10 insects for each treatment and 3 replicates for each treatment. In addition, a blank control was set up.
(§3) The treated test materials were placed in an observation room, and the temperature, humidity and illumination of the observation room could be adjusted as needed. The number of dead and live insects was investigated 72 hours later.

[2] = system: 3rd-instar larvae of Chilo suppressalis (Walker); assay: Joint toxicity of I-72 + organophosphorus insecticides, rice seedling dipping, Example 15, Table 15; details: 3rd-instar larvae, rice seedling dipping, 48 h, A = compound I-72, B = diazinon, read-out: LC50
Method: Test target: 3rd-instar larvae of Chilo suppressalis (Walker), a sensitive strain reared indoors.
as §1
as §2, with “method: first, tender and fresh rice seedlings were selected” for “method: first, cabbage leaves were selected”, “they were cut into small sections of 5 cm, placed in” for “they were placed in”
The treated test materials were placed in an observation room, and the temperature, humidity and illumination of the observation room could be adjusted as needed. The number of dead and live insects was investigated 48 hours later. The corrected mortality rate was calculated using the Abbott's formula, and statistical analysis was performed with the DPS data processing software to obtain the toxicity regression equation, LC50 value and 95% confidence limit of each single test pesticide and each mixture of different ratios. Then, the co-toxicity coefficient of each ratio was calculated using the Sun Y-P method to evaluate the mixing effect (the same as in Example 1).

[3] = system: 2nd-instar larvae of Chilo suppressalis (Walker); assay: Joint toxicity of I-72 + abamectin, rice stalk spraying, Example 7, Table 7; details: Chilo suppressalis, resistant 2nd-instar larvae, 72 h, A = compound I-72, B = abamectin, read-out: LC50
Method: Test target: 2nd-instar larvae of Chilo suppressalis (Walker). The insect source was collected from Nanchang, Jiangxi Province, and it is the 11th generation continuously cultured indoors, with a relatively high resistance level to amide pesticides such as chlorantraniliprole.
Test conditions: temperature: 25-27° C., humidity: RH 60%, and illumination: L:D=14:10
Preparation method: the test pesticides were accurately weighed respectively with an electronic analytical balance. After the two technical materials were respectively added into an appropriate amount of solvent and completely dissolved, the stock solution of the required concentration was prepared with water containing 0.1% Tween 80. The stock solutions of the two active ingredients were mixed in a certain ratio to prepare a mixed solution, which was then diluted respectively into a series of pesticide solutions with a certain concentration gradient according to the experimental design dosage.
Experimental method: the spraying method was adopted. […] The corrected mortality rate was calculated using the Abbott's formula, and the DPS data processing software was used for statistical analysis to calculate the toxicities (LC50 values) of the single test pesticides and the mixtures under the test ratios. […]

[4] = system: 3rd-instar larvae of Yponomeuta evonymallus (Linnaeus); assay: Joint toxicity of I-72 + thiamethoxam, Example 66, Table 66; details: A = compound I-72, B = thiamethoxam; leaf dipping; 72 hours
Method: Test target: 3rd-instar larvae of Yponomeuta evonymallus (Linnaeus).
as §1
as §2, with “Hylotelephium spectabile” for “cabbage”
as §3

[5] = system: adult Phyllotreta vittuta Fabr.; assay: Joint toxicity of I-72 + cyantraniliprole, Example 63, Table 63; details: A = compound I-72, B = cyantraniliprole; potted cabbage seedling spraying; 72 hours; read-out: LC50
Method: Test target: adult Phyllotreta vittuta Fabr.
as §1
Experimental method: first, uniform and consistent potted cabbage seedlings were selected. Then, uniform spraying was performed with the pesticide solution in the order from low dosage to high dosage according to the experimental design. After air-drying in the shade, adult flea beetles were transferred onto the treated cabbage seedlings, and then glass covers were put on them, with about 30-40 adult flea beetles on each seedling and 3 replicates for each treatment. In addition, a blank control was set up.
as §3, with “later. […] Then, the co-toxicity coefficient of each ratio was calculated using the Sun Y-P method to evaluate the mixing effect (the same as in Example 1).” for “later.”

[6] = system: adult Bemisia tabaci (Gennadius); assay: Joint toxicity of I-72 + emamectin benzoate, seedling spraying, Example 12, Table 12; details: Bemisia tabaci; adults, kidney bean seedling spraying, 72 h; A = compound I-72, B = emamectin benzoate; read-out: LC50
Excerpt: Test subject: adult Bemisia tabaci (Gennadius), a sensitive strain reared indoors.
Experimental method: the spraying method was adopted. The kidney bean seedlings cultivated in the greenhouse were selected and evenly sprayed with the pesticide solution in the order from low dosage to high dosage according to the experimental design. After natural air-drying in the shade, a self-made glass cover was put on, and the test insects were introduced, with 20-30 insects for each treatment and 3 replicates. In addition, a blank control was set up. The number of dead and live insects was investigated 72 hours later. The corrected mortality rate was calculated using the Abbott's formula, and the DPS data processing software was used for statistical analysis to calculate the toxicities (LC50 values) of the single test pesticides and the mixtures under the test ratios.
The test conditions, the preparation of the pesticide solution and the evaluation method were the same as those in Example 1.

Compound: CN(C(=O)c1ccc2c(c1)OC(F)(F)O2)c1cccc(C(=O)Nc2c(Br)cc(C(F)(C(F)(F)F)C(F)(F)F)cc2OC(F)F)c1F [Compound I-72]
- LC50 [1]: 0.252 µg/mL (≈ 0.339 µM)
- LC50 [2]: 1.76 µg/mL
- LC50 [3]: 0.811 µg/mL
- LC50 [4]: 4.5752 µg/mL
- LC50 [5]: 1.16 µg/mL
- LC50 [6]: 2.97 µg/mL
